From patent US7943598B2, “Use of organic glucosamine salts” (Bioiberica, S.A., priority 2004, dated 2011)

Test system: aggrecan degradation induced with IL-1α
Assay: Inhibition of aggrecan degradation (aggrecanolysis) induced with IL-1α in LTC chondrocyte culture, Western Blot with anti-G1 antibody
Assay type: cell-based, rat
Conditions: for inhibition of aggrecanolysis induced by IL-1α vs. the control: LTC rat chondrosarcoma chondrocyte culture, 10 ng/mL IL-1α, 4 days, control = culture with only IL-1α
Description: The study of the inhibition of aggrecan degradation was performed on a chondrocyte culture from a rat chondrosarcoma cell line. This cell line, called LTC, deposits an extracellular matrix similar to the cartilage's, expresses all the components of the aggrecanase system, generates the fragmentation of aggrecan by said enzymes, and responds to known aggrecanolysis inhibitors such as glucosamine hydrochloride. The assays were performed on chondrocyte cultures from a rat chondrosarcoma cell line called LTC. The LTC cells were kept in a monolayer culture in a Gibco DMEM medium (Dulbecco's Modification of Eagle's Medium) (containing 4.5 g/L of glucose) supplemented with sodium bicarbonate (3.7 g/L), glutamine (2 mM), ascorbic acid (50 mg/L), gentamicin (50 mg/L), and bovine fetal serum Hyalone (10%), at pH 7.4. The confluent LTC cell cultures were trypsinised and 40,000 cells per 0.5 mL of culture were seeded in 48-well plates. They were maintained for 5 days, during which time they deposited 15-30 μg of glycosaminoglycans (GAG) in each well. The medium was separated, the cell membranes were washed by adding 5×1 mL of a catabolic medium {DMEM+4.5 g/L glucose supplemented with sodium bicarbonate (3.7 g/L), glutamine (2 mM), and 10 ng/mL of IL-1α (interleukin-1α) at pH 7.4}. Subsequently, the cultures were kept in 200 μL of this medium, supplemented or not with glucosamine hydrogen malate, for 4 days, without changing the medium, at 37° C. In order to verify the effect of glucosamine hydrogen malate on aggrecan degradation, a Western Blot was performed. For the Western Blot, 20 μL of 50 mM tris-acetate at pH 7.3 were added to each well. The cultures (medium+cell membrane) were deglycosylated with 50 mU of chondroitinase ABC at 37° C. for 4 hours. Subsequently, the samples in each well were recovered and centrifuged at 1,460 g for 10 minutes. 25 μL-fractions of the supernatant were separated by electrophoresis (gel gradient 8-12% SDS PAGE) and analysed by means of a Western Blot using anti-G1 antibody. The antiserum was used at a 1:5,000 dilution and the peroxidase-conjugated goat anti-(rabbit IgG) was detected by means of the Amersham ECL Kit. The exposure time ranged between 5 seconds and 5 minutes in order to obtain quantifiable images. The Western Blots were scanned and the bands were quantified by means of the SCION image analysis software. In relation to the described procedure, see: J. D. Sandy et al., Biochem. J. 335, 59-66 (1998).

| SMILES | inhibition of aggrecanolysis induced by IL-1α vs. the control (1 mM) [%] | inhibition of aggrecanolysis induced by IL-1α vs. the control (10 mM) [%] | effectiveness in inhibiting aggrecanolysis compared with glucosamine hydrochloride (FIG. 1) (10 mM, LTC culture with IL-1α) |
| --- | --- | --- | --- |
| Cl.N[C@H]1C(O)O[C@H](CO)[C@@H](O)[C@@H]1O (some centres unmarked) [glucosamine hydrochloride, reference compound] | 83±4.9 | 53±5.8 | – |
| N[C@H]1C(O)O[C@H](CO)[C@@H](O)[C@@H]1O.O=C(O)CC(O)C(=O)O (some centres unmarked) [glucosamine hydrogen malate, Glucosamine Hydrogen Malate] | 95±17.5 | 32±3.7 | significantly more effective than glucosamine hydrochloride |
